In ChEMBL document CHEMBL4334534, “Novel Methyl-aza-quinazolines as Inhibitors of the RAS-SOS Interaction” (ACS Med Chem Lett, 2020):

Experiments:
[1] = target: Epidermal growth factor receptor (Homo sapiens, UniProt P00533); test: Inhibition of EGFR phosphorylation at Y 1173 residues in human HeLa cells preincubated for 30 mins followed by EGF-stimulation and measured after 2 mins by ELISA; format: cell-based
SOS1-KRAS [2] = target: T1, SOS1-KRAS (Homo sapiens, UniProt P01116+Q07889, G12C); test: Inhibition of human N-terminal GST-tagged K-RasG12C mutant/human N-terminal His-tagged SOS1 preincubated for 2 mis followed by SOS1 addition and measured after 20 mins in presence of GDP-Dy647P1 by HTRF assay
T1 sequence (P01116 whole entry G12C, stated change not applied): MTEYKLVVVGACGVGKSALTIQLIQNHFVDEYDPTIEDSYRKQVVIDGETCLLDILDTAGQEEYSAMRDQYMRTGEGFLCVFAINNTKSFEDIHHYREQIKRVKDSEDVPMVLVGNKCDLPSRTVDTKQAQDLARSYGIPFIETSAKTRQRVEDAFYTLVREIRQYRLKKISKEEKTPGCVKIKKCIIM
T1 sequence (Q07889 whole entry, stated change not applied): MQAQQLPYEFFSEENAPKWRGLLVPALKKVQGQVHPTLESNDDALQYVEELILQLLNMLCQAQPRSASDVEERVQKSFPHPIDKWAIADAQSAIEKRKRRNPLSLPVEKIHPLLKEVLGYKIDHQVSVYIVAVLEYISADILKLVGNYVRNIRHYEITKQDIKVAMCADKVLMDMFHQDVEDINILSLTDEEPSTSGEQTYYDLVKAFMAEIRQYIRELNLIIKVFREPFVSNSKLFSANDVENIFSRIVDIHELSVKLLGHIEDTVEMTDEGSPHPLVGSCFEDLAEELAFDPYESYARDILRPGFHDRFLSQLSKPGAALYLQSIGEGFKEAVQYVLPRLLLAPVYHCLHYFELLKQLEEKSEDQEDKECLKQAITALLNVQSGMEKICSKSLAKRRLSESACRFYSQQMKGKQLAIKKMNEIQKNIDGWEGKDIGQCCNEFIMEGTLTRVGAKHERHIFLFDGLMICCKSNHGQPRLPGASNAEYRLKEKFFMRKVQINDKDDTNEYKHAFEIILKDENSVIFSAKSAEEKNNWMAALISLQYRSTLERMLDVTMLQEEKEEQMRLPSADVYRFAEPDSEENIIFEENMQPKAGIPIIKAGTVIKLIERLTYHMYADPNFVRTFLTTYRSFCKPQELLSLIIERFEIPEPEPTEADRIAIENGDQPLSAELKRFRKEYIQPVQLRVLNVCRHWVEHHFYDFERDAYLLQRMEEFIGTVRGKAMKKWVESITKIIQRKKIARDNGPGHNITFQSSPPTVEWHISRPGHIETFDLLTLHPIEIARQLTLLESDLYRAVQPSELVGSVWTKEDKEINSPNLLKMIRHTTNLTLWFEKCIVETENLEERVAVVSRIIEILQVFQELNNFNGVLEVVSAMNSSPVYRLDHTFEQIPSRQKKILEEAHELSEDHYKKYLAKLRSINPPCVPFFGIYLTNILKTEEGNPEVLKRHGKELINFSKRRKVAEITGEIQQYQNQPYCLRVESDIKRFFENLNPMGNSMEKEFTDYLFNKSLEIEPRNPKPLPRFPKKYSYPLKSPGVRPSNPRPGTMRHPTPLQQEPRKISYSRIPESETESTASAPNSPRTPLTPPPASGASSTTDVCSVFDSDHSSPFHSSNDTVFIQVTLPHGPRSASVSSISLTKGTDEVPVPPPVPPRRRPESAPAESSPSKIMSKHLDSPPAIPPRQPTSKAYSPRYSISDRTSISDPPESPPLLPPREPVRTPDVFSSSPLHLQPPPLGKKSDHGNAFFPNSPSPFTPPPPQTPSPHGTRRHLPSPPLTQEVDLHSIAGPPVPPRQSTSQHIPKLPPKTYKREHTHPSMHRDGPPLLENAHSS

SOS1-KRAS [3] = target: T1, SOS1-KRAS; test: Inhibition of human N-terminal GST-tagged K-RasG12C mutant/human N-terminal His-tagged SOS1 preincubated for 2 mis followed by SOS1 addition and measured after 60 mins by HTRF assay
SOS1-KRAS [4] = target: T1, SOS1-KRAS; test: Inhibition of human N-terminal GST-tagged K-RasG12C mutant/human N-terminal His-tagged SOS1 preincubated for 2 mis followed by SOS1 addition and measured after 10 mins in presence of EDA-GTP-Dy647P1 by HTRF assay

Chain of Epidermal growth factor receptor (P00533 whole entry): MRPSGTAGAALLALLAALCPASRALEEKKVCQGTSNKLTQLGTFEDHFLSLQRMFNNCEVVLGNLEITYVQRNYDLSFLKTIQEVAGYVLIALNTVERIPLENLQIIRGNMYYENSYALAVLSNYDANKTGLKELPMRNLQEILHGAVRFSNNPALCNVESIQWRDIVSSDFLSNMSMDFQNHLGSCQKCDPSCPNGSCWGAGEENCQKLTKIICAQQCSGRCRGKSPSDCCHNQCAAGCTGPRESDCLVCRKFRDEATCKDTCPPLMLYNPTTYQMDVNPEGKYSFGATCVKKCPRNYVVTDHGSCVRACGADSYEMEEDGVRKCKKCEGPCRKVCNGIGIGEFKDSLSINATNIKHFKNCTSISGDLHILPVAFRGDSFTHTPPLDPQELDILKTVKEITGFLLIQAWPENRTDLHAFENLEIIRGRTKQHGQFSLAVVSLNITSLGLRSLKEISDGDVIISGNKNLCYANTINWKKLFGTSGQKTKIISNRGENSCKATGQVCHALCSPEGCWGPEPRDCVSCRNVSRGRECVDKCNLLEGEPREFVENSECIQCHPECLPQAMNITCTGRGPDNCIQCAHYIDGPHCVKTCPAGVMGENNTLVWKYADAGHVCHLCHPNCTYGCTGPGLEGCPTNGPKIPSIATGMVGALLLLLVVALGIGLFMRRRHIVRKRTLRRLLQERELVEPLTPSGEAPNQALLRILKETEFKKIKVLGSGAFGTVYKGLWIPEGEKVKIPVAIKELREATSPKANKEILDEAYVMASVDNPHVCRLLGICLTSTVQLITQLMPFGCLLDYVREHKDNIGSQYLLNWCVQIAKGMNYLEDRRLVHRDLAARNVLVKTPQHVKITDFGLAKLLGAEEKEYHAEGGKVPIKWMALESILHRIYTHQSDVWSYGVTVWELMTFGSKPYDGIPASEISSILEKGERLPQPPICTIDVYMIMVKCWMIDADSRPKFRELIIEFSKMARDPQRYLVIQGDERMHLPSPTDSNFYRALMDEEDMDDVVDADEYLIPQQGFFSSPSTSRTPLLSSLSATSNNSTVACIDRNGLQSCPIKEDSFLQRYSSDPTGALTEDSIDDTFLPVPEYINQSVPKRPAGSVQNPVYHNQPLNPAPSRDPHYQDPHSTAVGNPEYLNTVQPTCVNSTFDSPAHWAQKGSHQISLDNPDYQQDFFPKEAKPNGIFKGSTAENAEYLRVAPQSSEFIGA

Row | Structure (SMILES) | IC50 [1] [µM] | other results
1 | CC(=O)N[C@H]1CCN(c2cc3c(NC(C)c4ccc(-c5ccccc5CN(C)C)s4)nc(C)nc3cn2)C1 (stereo in doubt; 82) |  | IC50 ([1]; hela): > 20 µM
2 | CC(=O)N[C@@H]1CCN(c2cc3c(NC(C)c4ccc(-c5ccccc5CN(C)C)s4)nc(C)nc3cn2)C1 (stereo in doubt; 79) |  | IC50 ([1]; hela): > 20 µM
3 | CC(=O)N[C@@H]1CCN(c2cc3c(NC(C)c4ccc(-c5ccccc5CN(C)C)s4)nc(C)nc3cn2)C1 (stereo in doubt; 80) |  | IC50 ([1]; hela): > 20 µM
4 | Cc1nc(NC(C)c2ccc(-c3ccccc3CN(C)C)s2)c2cc(N3CCN(Cc4cccnc4)CC3)ncc2n1 (centres undefined) | > 20 | IC50 (SOS1-KRAS [2]): 0.085 µM
5 | CCCOc1cc2c(NC(C)c3ccc(-c4ccccc4CN(C)C)s3)nc(C)nc2cn1 (centres undefined) | > 20 | IC50 (SOS1-KRAS [2]): 0.038 µM
6 | Cc1nc(NC(C)c2ccc(-c3ccccc3CN(C)C)s2)c2cc(OCCN(C)C)ncc2n1 (centres undefined) | > 20 | IC50 (SOS1-KRAS [2]): 0.027 µM; IC50 (SOS1-KRAS [3]): 0.03 µM
7 | CCOc1cc2c(N[C@H](C)c3ccccc3)nc(C)nc2cn1 | > 20 | 
8 | Cc1nc(NC(C)c2ccc(-c3ccccc3CN(C)C)s2)c2cc(N3CCNC(=O)C3)ncc2n1 (centres undefined) | > 20 | IC50 (SOS1-KRAS [2]): 0.048 µM; IC50 (SOS1-KRAS [4]): 0.054 µM
9 | CC(=O)NC1CCN(c2cc3c(NC(C)c4ccc(-c5ccccc5CN(C)C)s4)nc(C)nc3cn2)C1 (racemic) | > 20 | 
10 | CC(=O)N[C@H]1CCN(c2cc3c(NC(C)c4ccc(-c5ccccc5CN(C)C)s4)nc(C)nc3cn2)C1 (stereo in doubt; 81) |  | IC50 ([1]; hela): > 20 µM
11 | COCCOc1cc2c(N[C@H](C)c3ccc(F)cc3)nc(C)nc2cn1 | > 20 | 

Now from value to compound, other results behind:

Row | IC50 [1] [µM] | Structure (SMILES) | other results
12 | > 20 | CCOc1cc2c(N[C@H](C)c3ccc(F)cc3)nc(C)nc2cn1 | 
13 | > 20 | CNCc1ccccc1-c1ccc(C(C)Nc2nc(C)nc3cnc(OCC4CCNC(=O)C4)cc23)s1 (centres undefined) | 
14 | > 20 | COc1cc2c(N[C@H](C)c3ccc(F)cc3)nc(C)nc2cn1 | 
15 | > 20 | CC(=O)N[C@H]1CCN(c2cc3c(NC(C)c4ccc(-c5ccccc5CN(C)C)s4)nc(C)nc3cn2)C1 (stereo in doubt; 61) | 
16 | > 20 | CSc1cc2c(N[C@H](C)c3ccc(F)cc3)nc(C)nc2cn1 | 
17 | > 20 | CC(=O)N[C@@H]1CCN(c2cc3c(NC(C)c4ccc(-c5ccccc5CN(C)C)s4)nc(C)nc3cn2)C1 (stereo in doubt; 60) | 
18 | > 20 | Cc1nc(NC(C)c2ccc(-c3ccccc3CN(C)C)s2)c2cc(N3CC(NC(=O)CN4CCOCC4)C3)ncc2n1 (centres undefined) | 
